Assay results from patent US20240300932A1, “N-PHENYLIMINE DERIVATIVE AND PREPARATION METHOD AND USE THEREOF” (Guizhou University, priority 2023, published 2024).

Experiments:
Abutilon theophrasti = test: Post-emergence herbicidal activity test (stem and leaf spray, pot culture); format: in vivo; conditions: 3 weeks after spraying
How it was run: (§1)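 Read-out: fresh weight control rate 3 weeks post-spray, graded 5 (≥85%) down to 0 (<5%). Foliar spray at 2–3-leaf stage; rates 10, 5, 2.5 g/mu; acetone + Tween 80 formulation with methyl oleate synergist; greenhouse 20–30 °C, natural light.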

Amaranthus retroflexus = test: as above; format: in vivo; conditions: 3 weeks after spraying
How it was run: as §1

Echinochloa crusgalli = test: as above; format: in vivo; conditions: 3 weeks after spraying
How it was run: as §1

Portulaca oleracea = test: as above; format: in vivo; conditions: 3 weeks after spraying
How it was run: as §1

Setaria viridis = test: as above; format: in vivo; conditions: 3 weeks after spraying
How it was run: as §1

Trifoliumre pensL. = test: Post-emergence herbicidal activity test (stem and leaf spray, pot culture); format: in vivo; conditions: 3 weeks after spraying
How it was run: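 Rates of 10, 5 and 2.5 g/mu were applied in a single spray-tower treatment to 2–3-leaf plants, thinned to 10 per pot. Formulation: acetone solution, Tween 80, 1.5 L/ha methyl oleate synergist. Weed response assessed after 3 further greenhouse weeks; mean of three experiments.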

| Structure (SMILES) | Post-emergence herbicidal activity, A. theophrasti (grade) (Abutilon theophrasti; dosage 2.5 g/mu) | Post-emergence herbicidal activity, A. theophrasti (grade) (Abutilon theophrasti; dosage 5 g/mu) | Post-emergence herbicidal activity, A. theophrasti (grade) (Abutilon theophrasti; dosage 10 g/mu) | Post-emergence herbicidal activity, A. retroflexus (grade) (Amaranthus retroflexus; dosage 2.5 g/mu) | Post-emergence herbicidal activity, A. retroflexus (grade) (Amaranthus retroflexus; dosage 5 g/mu) | Post-emergence herbicidal activity, A. retroflexus (grade) (Amaranthus retroflexus; dosage 10 g/mu) | Post-emergence herbicidal activity, E. crusgalli (grade) (Echinochloa crusgalli; dosage 2.5 g/mu) | Post-emergence herbicidal activity, E. crusgalli (grade) (Echinochloa crusgalli; dosage 5 g/mu) | Post-emergence herbicidal activity, E. crusgalli (grade) (Echinochloa crusgalli; dosage 10 g/mu) | Post-emergence herbicidal activity, P. oleracea (grade) (Portulaca oleracea; dosage 2.5 g/mu) | Post-emergence herbicidal activity, P. oleracea (grade) (Portulaca oleracea; dosage 5 g/mu) | Post-emergence herbicidal activity, P. oleracea (grade) (Portulaca oleracea; dosage 10 g/mu) | Post-emergence herbicidal activity, S. viridis (grade) (Setaria viridis; dosage 2.5 g/mu) | Post-emergence herbicidal activity, S. viridis (grade) (Setaria viridis; dosage 5 g/mu) | Post-emergence herbicidal activity, S. viridis (grade) (Setaria viridis; dosage 10 g/mu) | melting point [°C] | Post-emergence herbicidal activity, Trifoliumre pensL. (grade) (Trifoliumre pensL.; dosage 2.5 g/mu) | Post-emergence herbicidal activity, Trifoliumre pensL. (grade) (Trifoliumre pensL.; dosage 5 g/mu) | Post-emergence herbicidal activity, Trifoliumre pensL. (grade) (Trifoliumre pensL.; dosage 10 g/mu) |
| --- | --- | --- | --- | --- | --- | --- | --- | --- | --- | --- | --- | --- | --- | --- | --- | --- | --- | --- | --- |
| Cc1ccccc1-c1noc(COc2cc(N3C(=O)C4=C(CCCC4)C3=O)c(F)cc2Cl)n1 [Compound A2, 2-(4-chloro-2-fluoro-5-((3-(2-tolyl)-1,2,4-oxadiazole-5-yl)methoxy)phenyl)-4,5,6,7-tetrahydro-1H-isoindole-1,3(2H)-dione] | 5 (Grade 5: the growth control rate is greater than or equal to 85%) | 5 (Grade 5: the growth control rate is greater than or equal to 85%) | 5 (Grade 5: the growth control rate is greater than or equal to 85%) | 5 (Grade 5: the growth control rate is greater than or equal to 85%) | 5 (Grade 5: the growth control rate is greater than or equal to 85%) | 5 (Grade 5: the growth control rate is greater than or equal to 85%) | 1 (Grade 1: the growth control rate is greater than or equal to 5% and less than 20%) | 2 (Grade 2: the growth control rate is greater than or equal to 20% and less than 40%) | 3 (Grade 3: the growth control rate is greater than or equal to 40% and less than 60%) | 4 (Grade 4: the growth control rate is greater than or equal to 60% and less than 85%) | 5 (Grade 5: the growth control rate is greater than or equal to 85%) | 5 (Grade 5: the growth control rate is greater than or equal to 85%) | 2 (Grade 2: the growth control rate is greater than or equal to 20% and less than 40%) | 3 (Grade 3: the growth control rate is greater than or equal to 40% and less than 60%) | 4 (Grade 4: the growth control rate is greater than or equal to 60% and less than 85%) | 161 to 167 | 4 (Grade 4: the growth control rate is greater than or equal to 60% and less than 85%) | 5 (Grade 5: the growth control rate is greater than or equal to 85%) | 5 (Grade 5: the growth control rate is greater than or equal to 85%) |
| Cc1ccc(-c2nnc(COc3cc(N4C(=O)C5=C(CCCC5)C4=O)c(F)cc3Cl)o2)cc1 [Compound B13, 2-(4-chloro-2-fluoro-5-((5-(4-tolyl)-1,3,4-oxadiazole-2-yl)methoxy)phenyl)-4,5,6,7-tetrahydro-1H-isoindole-1,3(2H)-dione] | 5 (Grade 5: the growth control rate is greater than or equal to 85%) | 5 (Grade 5: the growth control rate is greater than or equal to 85%) | 5 (Grade 5: the growth control rate is greater than or equal to 85%) | 5 (Grade 5: the growth control rate is greater than or equal to 85%) | 5 (Grade 5: the growth control rate is greater than or equal to 85%) | 5 (Grade 5: the growth control rate is greater than or equal to 85%) | 1 (Grade 1: the growth control rate is greater than or equal to 5% and less than 20%) | 2 (Grade 2: the growth control rate is greater than or equal to 20% and less than 40%) | 3 (Grade 3: the growth control rate is greater than or equal to 40% and less than 60%) | 5 (Grade 5: the growth control rate is greater than or equal to 85%) | 5 (Grade 5: the growth control rate is greater than or equal to 85%) | 5 (Grade 5: the growth control rate is greater than or equal to 85%) | 2 (Grade 2: the growth control rate is greater than or equal to 20% and less than 40%) | 3 (Grade 3: the growth control rate is greater than or equal to 40% and less than 60%) | 4 (Grade 4: the growth control rate is greater than or equal to 60% and less than 85%) | 104 to 106 | 5 (Grade 5: the growth control rate is greater than or equal to 85%) | 5 (Grade 5: the growth control rate is greater than or equal to 85%) | 5 (Grade 5: the growth control rate is greater than or equal to 85%) |
| Cc1ccccc1-c1nnc(COc2cc(N3C(=O)C4=C(CCCC4)C3=O)c(F)cc2Cl)o1 [Compound B9, 2-(4-chloro-2-fluoro-5-((5-(2-tolyl)-1,3,4-oxadiazole-2-yl)methoxy)phenyl)-4,5,6,7-tetrahydro-1H-isoindole-1,3(2H)-dione] | 5 (Grade 5: the growth control rate is greater than or equal to 85%) | 5 (Grade 5: the growth control rate is greater than or equal to 85%) | 5 (Grade 5: the growth control rate is greater than or equal to 85%) | 5 (Grade 5: the growth control rate is greater than or equal to 85%) | 5 (Grade 5: the growth control rate is greater than or equal to 85%) | 5 (Grade 5: the growth control rate is greater than or equal to 85%) | 1 (Grade 1: the growth control rate is greater than or equal to 5% and less than 20%) | 2 (Grade 2: the growth control rate is greater than or equal to 20% and less than 40%) | 3 (Grade 3: the growth control rate is greater than or equal to 40% and less than 60%) | 5 (Grade 5: the growth control rate is greater than or equal to 85%) | 5 (Grade 5: the growth control rate is greater than or equal to 85%) | 5 (Grade 5: the growth control rate is greater than or equal to 85%) | 2 (Grade 2: the growth control rate is greater than or equal to 20% and less than 40%) | 3 (Grade 3: the growth control rate is greater than or equal to 40% and less than 60%) | 4 (Grade 4: the growth control rate is greater than or equal to 60% and less than 85%) | 144 to 147 | 5 (Grade 5: the growth control rate is greater than or equal to 85%) | 5 (Grade 5: the growth control rate is greater than or equal to 85%) | 5 (Grade 5: the growth control rate is greater than or equal to 85%) |
| O=C(COc1cc(N2C(=O)C3=C(CCCC3)C2=O)c(F)cc1Cl)c1cc(F)cc(F)c1 [Compound C5, 2-(4-chloro-2-fluoro-5-(2-oxo-2-(3,5-difluorophenyl)ethoxy)phenyl)-4,5,6,7-tetrahydro-1H-isoindole-1,3(2H)-dione] | 5 (Grade 5: the growth control rate is greater than or equal to 85%) | 5 (Grade 5: the growth control rate is greater than or equal to 85%) | 5 (Grade 5: the growth control rate is greater than or equal to 85%) | 5 (Grade 5: the growth control rate is greater than or equal to 85%) | 5 (Grade 5: the growth control rate is greater than or equal to 85%) | 5 (Grade 5: the growth control rate is greater than or equal to 85%) | 1 (Grade 1: the growth control rate is greater than or equal to 5% and less than 20%) | 2 (Grade 2: the growth control rate is greater than or equal to 20% and less than 40%) | 3 (Grade 3: the growth control rate is greater than or equal to 40% and less than 60%) | 5 (Grade 5: the growth control rate is greater than or equal to 85%) | 5 (Grade 5: the growth control rate is greater than or equal to 85%) | 5 (Grade 5: the growth control rate is greater than or equal to 85%) | 2 (Grade 2: the growth control rate is greater than or equal to 20% and less than 40%) | 3 (Grade 3: the growth control rate is greater than or equal to 40% and less than 60%) | 4 (Grade 4: the growth control rate is greater than or equal to 60% and less than 85%) | 135 to 137 | 5 (Grade 5: the growth control rate is greater than or equal to 85%) | 5 (Grade 5: the growth control rate is greater than or equal to 85%) | 5 (Grade 5: the growth control rate is greater than or equal to 85%) |
